Source: PMC4883067 (Pharmacognosy Magazine, 2016)

Assays:
rat brain MAO-B [1] = target: T1, rat brain MAO-B (Rattus norvegicus, UniProt P19643); experiment: Kinetics of monoamine oxidase inhibition; type: biochemical; conditions: for Mechanism of inhibition: MAO-B, substrate benzylamine, Lineweaver-Burk
T1 sequence (P19643 1-520): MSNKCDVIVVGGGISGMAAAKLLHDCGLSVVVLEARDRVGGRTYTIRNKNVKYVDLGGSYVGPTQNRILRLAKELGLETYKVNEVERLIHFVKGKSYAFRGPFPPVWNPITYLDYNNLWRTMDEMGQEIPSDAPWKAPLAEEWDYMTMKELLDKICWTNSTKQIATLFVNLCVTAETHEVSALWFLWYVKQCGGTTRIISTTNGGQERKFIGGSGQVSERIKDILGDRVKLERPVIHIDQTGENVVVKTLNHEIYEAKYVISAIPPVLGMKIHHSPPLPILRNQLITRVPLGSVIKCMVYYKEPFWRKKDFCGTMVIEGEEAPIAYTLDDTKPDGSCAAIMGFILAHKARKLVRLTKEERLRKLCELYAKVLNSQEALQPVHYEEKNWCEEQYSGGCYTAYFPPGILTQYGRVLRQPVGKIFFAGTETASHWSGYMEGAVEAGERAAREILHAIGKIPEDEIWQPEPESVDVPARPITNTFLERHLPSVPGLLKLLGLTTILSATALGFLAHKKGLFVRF

[2] = cited from earlier work
rat brain MAO-B [3] = target: T1, rat brain MAO-B; experiment: Inhibition of MAO-B activity in rat brain crude mitochondrial fraction; type: biochemical

| Mechanism of inhibition (rat brain MAO-B [1]) | IC50 (rat brain MAO-B [3]) | Vmax (remained constant) (rat brain MAO-B [1]; ellagic acid, 200–600 μg/ml as printed, benzylamine 5-15 mM) | Compound | pKa value [2] |
| --- | --- | --- | --- | --- |
| noncompetitive | 500 nM |  | COc1cc(C=CC(=O)CC(=O)C=Cc2ccc(O)c(OC)c2)ccc1O [Curcumin, 1,7-bis-(4-hydroxy-3-methoxyphenyl)-hepta-1,6-diene-3,5-dione] | 8.54 |
| Competitive | 412 nM | 8.40 nM/min | O=c1oc2c(O)c(O)cc3c(=O)oc4c(O)c(O)cc1c4c23 [Ellagic acid] |  |
